Test results reported in patent publication US12343326B2, “Psychoactive medicines and their use for treating psychiatric and neurological conditions and disorders” (Transcend Therapeutics, Inc., priority 2021, dated 2025).
Read-outs that look alike come from different tables or passages of the source.

How the values were obtained:
[1] = cited from earlier work
168 GPCRs [2] = molecular target: 168 GPCRs (Homo sapiens, UniProt O43193); test: β-arrestin based GPCR screen (PathHunter / GPCRmax), antagonist mode; conditions: MLNR
168 GPCRs [3] = molecular target: 168 GPCRs (Homo sapiens, UniProt O43603); test: as above
168 GPCRs [4] = molecular target: 168 GPCRs (Homo sapiens, UniProt O95838); test: as above; conditions: GLP2R
168 GPCRs [5] = molecular target: T1, 168 GPCRs (Homo sapiens, UniProt P08173); test: as above; conditions: CHRM4, Antagonist
T1 sequence (P08173 1-479): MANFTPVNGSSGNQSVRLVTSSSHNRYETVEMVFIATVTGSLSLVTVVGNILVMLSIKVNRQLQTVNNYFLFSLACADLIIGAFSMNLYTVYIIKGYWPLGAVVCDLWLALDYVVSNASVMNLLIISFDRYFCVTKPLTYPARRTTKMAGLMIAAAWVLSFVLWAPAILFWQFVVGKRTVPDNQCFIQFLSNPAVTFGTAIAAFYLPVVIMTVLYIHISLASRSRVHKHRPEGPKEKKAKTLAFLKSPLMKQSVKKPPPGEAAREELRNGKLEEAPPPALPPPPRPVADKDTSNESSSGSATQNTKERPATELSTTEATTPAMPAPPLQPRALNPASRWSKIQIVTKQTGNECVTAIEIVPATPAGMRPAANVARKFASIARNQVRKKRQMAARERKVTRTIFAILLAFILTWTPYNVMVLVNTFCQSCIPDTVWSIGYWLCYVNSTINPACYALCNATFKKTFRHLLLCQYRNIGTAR

168 GPCRs [6] = molecular target: 168 GPCRs (Homo sapiens, UniProt P20309); test: as above; conditions: CHRM3, Antagonist
168 GPCRs [7] = molecular target: 168 GPCRs (Homo sapiens, UniProt P21452); test: as above
168 GPCRs [8] = molecular target: 168 GPCRs (Homo sapiens, UniProt P32245); test: as above; conditions: MC4R
168 GPCRs [9] = molecular target: T2, 168 GPCRs (Homo sapiens, UniProt P32248); test: as above; conditions: CCR7, Antagonist
T2 sequence (P32248 25-378): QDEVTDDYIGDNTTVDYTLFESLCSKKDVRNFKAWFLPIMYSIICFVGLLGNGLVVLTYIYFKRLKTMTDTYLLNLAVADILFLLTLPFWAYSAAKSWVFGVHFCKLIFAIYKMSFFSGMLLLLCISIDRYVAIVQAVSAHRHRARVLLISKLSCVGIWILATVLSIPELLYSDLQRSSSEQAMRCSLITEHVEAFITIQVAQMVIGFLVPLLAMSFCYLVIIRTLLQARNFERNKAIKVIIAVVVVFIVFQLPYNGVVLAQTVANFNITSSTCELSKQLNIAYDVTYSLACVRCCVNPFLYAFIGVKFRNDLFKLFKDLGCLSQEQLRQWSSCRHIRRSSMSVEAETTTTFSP

168 GPCRs [10] = molecular target: 168 GPCRs (Homo sapiens, UniProt P41143); test: as above
168 GPCRs [11] = molecular target: 168 GPCRs (Homo sapiens, UniProt P43119); test: as above; conditions: PTGIR
168 GPCRs [12] = molecular target: 168 GPCRs (Homo sapiens, UniProt P49190); test: as above
168 GPCRs [13] = molecular target: 168 GPCRs (Homo sapiens, UniProt P49683); test: as above; conditions: PRLHR
168 GPCRs [14] = molecular target: 168 GPCRs (Homo sapiens, UniProt Q8TDV5); test: as above
168 GPCRs [15] = molecular target: 168 GPCRs (Homo sapiens, UniProt Q9NSD7); test: as above
168 GPCRs [16] = molecular target: 168 GPCRs (Homo sapiens, UniProt Q9UKP6); test: as above
[17] = across oral doses of 50 mg to 200 mg

168 GPCRs (Homo sapiens, UniProt O43193), sequence (O43193 whole entry): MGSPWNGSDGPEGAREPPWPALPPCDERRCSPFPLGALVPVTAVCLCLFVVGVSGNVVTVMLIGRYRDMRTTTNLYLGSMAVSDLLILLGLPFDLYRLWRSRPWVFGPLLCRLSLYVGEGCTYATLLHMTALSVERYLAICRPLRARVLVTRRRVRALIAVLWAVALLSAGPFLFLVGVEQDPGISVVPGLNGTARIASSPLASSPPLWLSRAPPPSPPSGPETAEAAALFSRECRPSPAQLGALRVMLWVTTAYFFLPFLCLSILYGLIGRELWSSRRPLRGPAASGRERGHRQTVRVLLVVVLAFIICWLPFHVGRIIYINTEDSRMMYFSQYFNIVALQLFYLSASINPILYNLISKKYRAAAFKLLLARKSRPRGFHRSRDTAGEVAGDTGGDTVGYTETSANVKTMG
168 GPCRs (Homo sapiens, UniProt Q8TDV5), sequence (Q8TDV5 whole entry): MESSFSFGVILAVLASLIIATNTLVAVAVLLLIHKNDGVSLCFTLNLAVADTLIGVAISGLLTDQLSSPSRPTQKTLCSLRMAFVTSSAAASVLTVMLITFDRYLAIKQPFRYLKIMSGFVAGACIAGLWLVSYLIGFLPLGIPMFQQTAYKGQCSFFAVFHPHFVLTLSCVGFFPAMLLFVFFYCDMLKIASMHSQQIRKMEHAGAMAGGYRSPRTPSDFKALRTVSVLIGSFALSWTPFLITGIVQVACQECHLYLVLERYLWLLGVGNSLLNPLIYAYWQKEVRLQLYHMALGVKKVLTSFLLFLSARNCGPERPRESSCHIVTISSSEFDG
168 GPCRs (Homo sapiens, UniProt O43603), sequence (O43603 whole entry): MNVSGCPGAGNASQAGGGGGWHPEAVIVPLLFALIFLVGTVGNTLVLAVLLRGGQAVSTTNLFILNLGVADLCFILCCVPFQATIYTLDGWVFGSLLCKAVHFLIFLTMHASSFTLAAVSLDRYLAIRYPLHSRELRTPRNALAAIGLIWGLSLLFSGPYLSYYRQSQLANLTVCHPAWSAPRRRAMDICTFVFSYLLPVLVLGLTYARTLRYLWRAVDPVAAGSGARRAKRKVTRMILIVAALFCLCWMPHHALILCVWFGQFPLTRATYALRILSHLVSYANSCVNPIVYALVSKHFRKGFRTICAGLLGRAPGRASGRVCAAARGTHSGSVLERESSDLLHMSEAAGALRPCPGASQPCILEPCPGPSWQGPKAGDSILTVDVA
168 GPCRs (Homo sapiens, UniProt P41143), sequence (P41143 whole entry): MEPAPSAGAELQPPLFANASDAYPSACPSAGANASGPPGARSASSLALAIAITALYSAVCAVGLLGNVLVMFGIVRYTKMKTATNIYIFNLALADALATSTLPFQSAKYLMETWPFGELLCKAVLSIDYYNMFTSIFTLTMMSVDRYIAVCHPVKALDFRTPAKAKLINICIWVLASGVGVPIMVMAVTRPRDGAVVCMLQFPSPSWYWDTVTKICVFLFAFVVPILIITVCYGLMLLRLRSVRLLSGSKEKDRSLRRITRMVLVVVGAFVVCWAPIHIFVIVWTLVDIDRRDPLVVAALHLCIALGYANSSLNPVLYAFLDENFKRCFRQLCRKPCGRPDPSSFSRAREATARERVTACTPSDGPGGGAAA
168 GPCRs (Homo sapiens, UniProt P49190), sequence (P49190 25-550): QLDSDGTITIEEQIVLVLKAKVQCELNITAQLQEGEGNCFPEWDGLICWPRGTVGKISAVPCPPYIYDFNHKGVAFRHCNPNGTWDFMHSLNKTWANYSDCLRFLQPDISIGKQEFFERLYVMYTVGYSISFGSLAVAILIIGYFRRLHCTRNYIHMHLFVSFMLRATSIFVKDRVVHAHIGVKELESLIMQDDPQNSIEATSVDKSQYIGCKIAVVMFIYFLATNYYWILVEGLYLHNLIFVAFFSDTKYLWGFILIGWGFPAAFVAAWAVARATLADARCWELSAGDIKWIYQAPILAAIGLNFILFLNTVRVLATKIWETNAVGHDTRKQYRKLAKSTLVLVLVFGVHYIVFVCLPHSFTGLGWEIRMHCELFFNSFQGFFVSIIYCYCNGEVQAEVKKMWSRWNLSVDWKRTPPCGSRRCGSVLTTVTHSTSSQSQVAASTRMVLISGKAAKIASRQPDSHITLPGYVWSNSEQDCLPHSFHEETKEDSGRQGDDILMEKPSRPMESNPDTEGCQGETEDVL
168 GPCRs (Homo sapiens, UniProt P43119), sequence (P43119 whole entry): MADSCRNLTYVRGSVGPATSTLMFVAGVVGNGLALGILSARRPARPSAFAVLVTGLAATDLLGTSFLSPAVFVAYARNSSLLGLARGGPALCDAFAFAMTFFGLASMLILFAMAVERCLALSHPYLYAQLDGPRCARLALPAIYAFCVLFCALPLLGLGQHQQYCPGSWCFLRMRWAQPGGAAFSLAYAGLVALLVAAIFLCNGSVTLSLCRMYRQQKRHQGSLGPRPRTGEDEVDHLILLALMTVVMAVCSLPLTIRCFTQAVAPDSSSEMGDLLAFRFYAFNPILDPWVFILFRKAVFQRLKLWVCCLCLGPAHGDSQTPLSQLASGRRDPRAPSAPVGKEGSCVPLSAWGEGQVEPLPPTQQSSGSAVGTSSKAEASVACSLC
168 GPCRs (Homo sapiens, UniProt P21452), sequence (P21452 whole entry): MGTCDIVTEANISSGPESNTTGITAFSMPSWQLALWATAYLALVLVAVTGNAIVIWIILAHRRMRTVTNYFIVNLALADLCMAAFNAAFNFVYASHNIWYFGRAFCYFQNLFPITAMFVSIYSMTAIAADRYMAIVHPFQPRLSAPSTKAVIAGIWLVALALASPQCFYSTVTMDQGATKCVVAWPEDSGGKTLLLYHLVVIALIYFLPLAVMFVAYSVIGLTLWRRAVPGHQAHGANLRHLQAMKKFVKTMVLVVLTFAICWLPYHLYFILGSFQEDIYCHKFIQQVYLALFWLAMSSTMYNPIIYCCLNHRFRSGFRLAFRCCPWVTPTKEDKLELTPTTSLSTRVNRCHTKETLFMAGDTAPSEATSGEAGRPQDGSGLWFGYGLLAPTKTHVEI
168 GPCRs (Homo sapiens, UniProt Q9UKP6), sequence (Q9UKP6 whole entry): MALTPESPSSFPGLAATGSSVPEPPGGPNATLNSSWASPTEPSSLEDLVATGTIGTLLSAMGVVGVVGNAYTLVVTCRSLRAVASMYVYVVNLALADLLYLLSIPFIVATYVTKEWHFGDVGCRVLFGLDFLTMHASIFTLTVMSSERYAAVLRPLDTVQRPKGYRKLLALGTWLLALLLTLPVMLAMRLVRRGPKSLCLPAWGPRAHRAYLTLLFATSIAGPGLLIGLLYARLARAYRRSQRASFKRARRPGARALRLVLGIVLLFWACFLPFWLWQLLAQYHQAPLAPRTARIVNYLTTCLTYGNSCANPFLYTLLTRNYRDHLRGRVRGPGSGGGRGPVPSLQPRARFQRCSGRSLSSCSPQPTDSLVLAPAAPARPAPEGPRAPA
168 GPCRs (Homo sapiens, UniProt P20309), sequence (P20309 whole entry): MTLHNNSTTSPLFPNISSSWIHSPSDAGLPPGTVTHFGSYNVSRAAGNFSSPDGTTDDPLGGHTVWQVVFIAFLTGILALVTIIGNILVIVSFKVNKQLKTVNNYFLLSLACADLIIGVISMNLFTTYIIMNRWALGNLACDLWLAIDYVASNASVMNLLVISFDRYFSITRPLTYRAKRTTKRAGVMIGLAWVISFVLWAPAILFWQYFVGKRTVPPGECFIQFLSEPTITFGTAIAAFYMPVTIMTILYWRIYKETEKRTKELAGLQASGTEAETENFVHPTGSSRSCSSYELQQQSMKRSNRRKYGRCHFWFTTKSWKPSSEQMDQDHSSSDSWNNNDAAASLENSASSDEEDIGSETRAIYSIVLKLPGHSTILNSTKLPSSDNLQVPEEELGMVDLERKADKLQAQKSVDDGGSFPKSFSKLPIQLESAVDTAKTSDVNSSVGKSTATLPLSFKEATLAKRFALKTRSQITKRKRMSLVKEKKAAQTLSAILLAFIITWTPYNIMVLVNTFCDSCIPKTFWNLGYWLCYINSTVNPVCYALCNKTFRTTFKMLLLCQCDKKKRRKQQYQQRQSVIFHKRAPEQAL
168 GPCRs (Homo sapiens, UniProt P49683), sequence (P49683 whole entry): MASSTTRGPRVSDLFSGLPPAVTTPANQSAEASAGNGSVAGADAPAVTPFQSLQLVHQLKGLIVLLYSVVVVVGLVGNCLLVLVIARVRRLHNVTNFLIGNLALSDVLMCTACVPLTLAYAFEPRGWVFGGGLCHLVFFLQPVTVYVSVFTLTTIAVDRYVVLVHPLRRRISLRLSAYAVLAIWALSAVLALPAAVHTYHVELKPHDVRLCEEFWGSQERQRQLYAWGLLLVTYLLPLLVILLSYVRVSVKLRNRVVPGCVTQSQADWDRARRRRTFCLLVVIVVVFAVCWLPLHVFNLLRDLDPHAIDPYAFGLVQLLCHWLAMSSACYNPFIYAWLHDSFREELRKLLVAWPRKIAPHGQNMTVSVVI
168 GPCRs (Homo sapiens, UniProt O95838), sequence (O95838 whole entry): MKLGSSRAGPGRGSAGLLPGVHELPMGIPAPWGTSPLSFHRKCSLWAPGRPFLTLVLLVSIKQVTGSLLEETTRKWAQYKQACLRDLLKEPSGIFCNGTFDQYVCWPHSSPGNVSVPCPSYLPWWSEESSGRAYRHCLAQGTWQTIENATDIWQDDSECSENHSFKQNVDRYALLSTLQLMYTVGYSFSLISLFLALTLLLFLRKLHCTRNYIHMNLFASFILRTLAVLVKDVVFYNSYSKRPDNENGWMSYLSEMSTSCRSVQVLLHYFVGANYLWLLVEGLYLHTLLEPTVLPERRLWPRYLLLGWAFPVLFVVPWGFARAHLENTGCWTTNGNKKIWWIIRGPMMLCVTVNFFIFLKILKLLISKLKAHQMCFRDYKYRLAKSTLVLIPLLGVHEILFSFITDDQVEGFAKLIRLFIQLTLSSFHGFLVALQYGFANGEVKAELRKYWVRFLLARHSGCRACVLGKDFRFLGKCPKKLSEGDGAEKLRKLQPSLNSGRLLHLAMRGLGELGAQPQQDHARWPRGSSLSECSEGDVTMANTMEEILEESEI

CNC(C)C(=O)c1ccc2c(c1)OCO2 (stereo not drawn) [methylone, 3,4-methylenedioxy-N-methylcathinone]
half-life [1, 17]: 6 to 7 h | time to reach maximum concentrations (Tmax) [1, 17]: 1 to 2 h | AUC10 hr, geometric mean ([1]; oral 50 mg, N = 3): 725 ng·h/mL | Tmax, median ([1]; oral 50 mg, N = 3): 1.5 h | Cmax, geometric mean ([1]; oral 100 mg, N = 6): 283.9 ng/mL | Half-life, geometric mean ([1]; oral 100 mg, N = 6): 6.0 h | Tmax, median ([1]; oral 100 mg, N = 6): 2.5 h | AUC24 hr, geometric mean ([1]; oral 150 mg, N = 5): 3165 ng·h/mL | AUCinf, geometric mean ([1]; oral 150 mg, N = 5): 3509 ng·h/mL | Tmax, median ([1]; oral 150 mg, N = 5): 2 h | Half-life, geometric mean ([1]; oral 200 mg, N = 7): 6.5 h | Tmax, median ([1]; oral 200 mg, N = 7): 2 h | activity at 10 µM (168 GPCRs [2]; Antagonist mode, 10 uM): 12.3% | activity at 1 µM (168 GPCRs [2]; Antagonist, 1 uM): 15.6% | activity at 10 µM (168 GPCRs [3]; GALR2, Antagonist mode, 10 uM): 1.5% | activity at 1 µM (168 GPCRs [3]; GALR2, Antagonist, 1 uM): 7% | activity at 10 µM (168 GPCRs [4]; Antagonist mode, 10 uM): 5.4% | activity at 1 µM (168 GPCRs [4]; Antagonist, 1 uM): 5.4% | activity at 1 µM (168 GPCRs [5]; 1 uM): 10.2% | activity at 10 µM (168 GPCRs [5]; 10 uM): 6.7% | activity at 1 µM (168 GPCRs [6]; 1 uM): -5.5% | activity at 10 µM (168 GPCRs [6]; 10 uM): 14.6% | activity at 10 µM (168 GPCRs [7]; TACR2, Antagonist mode, 10 uM): 9.1% | activity at 1 µM (168 GPCRs [7]; TACR2, Antagonist, 1 uM): 10% | activity at 10 µM (168 GPCRs [8]; Antagonist mode, 10 uM): -14% | activity at 1 µM (168 GPCRs [8]; Antagonist, 1 uM): -5.2% | activity at 1 µM (168 GPCRs [9]; 1 uM): -8.3% | activity at 10 µM (168 GPCRs [9]; 10 uM): -3.4% | activity at 10 µM (168 GPCRs [10]; OPRD1, Antagonist mode, 10 uM): 3.5% | activity at 1 µM (168 GPCRs [10]; OPRD1, Antagonist, 1 uM): -2.7% | activity at 10 µM (168 GPCRs [11]; Antagonist mode, 10 uM): -21.5% | activity at 1 µM (168 GPCRs [11]; Antagonist, 1 uM): 12.4% | activity at 10 µM (168 GPCRs [12]; PTHR2, Antagonist mode, 10 uM): -0.2% | activity at 1 µM (168 GPCRs [12]; PTHR2, Antagonist, 1 uM): -1% | activity at 10 µM (168 GPCRs [13]; Antagonist mode, 10 uM): 15.8% | activity at 1 µM (168 GPCRs [13]; Antagonist, 1 uM): 17.8% | activity at 10 µM (168 GPCRs [14]; GPR119, Antagonist mode, 10 uM): -8.8% | activity at 1 µM (168 GPCRs [14]; GPR119, Antagonist, 1 uM): 17.1% | activity at 10 µM (168 GPCRs [15]; RXFP3, Antagonist mode, 10 uM): 32.6% | activity at 1 µM (168 GPCRs [15]; RXFP3, Antagonist, 1 uM): 23.1% | activity at 10 µM (168 GPCRs [16]; UTR2, Antagonist mode, 10 uM): 4.2% | activity at 1 µM (168 GPCRs [16]; UTR2, Antagonist, 1 uM): -2.1%
